Experimental data from article PMC11990136, “Prenylation of Flavanones by an Aromatic Prenyltransferase from Fusarium globosum” (Molecules, 2025).

How the values were obtained:
FgPT1 [1] = target: T1, FgPT1 (Fusarium globosum, UniProt A0A8H5XPW9); experiment: HPLC product formation, Michaelis-Menten fit; type: biochemical; settings: 1 mM DMAPP, 1 mM BaCl2, 100 mM Tris-HCl pH 7.5, 37 °C, apparent
T1 construct: gene FGLOB1_12591; full length, 426 residues, N-terminal His6 tag (pET-28a, synthetic gene), E. coli BL21(DE3), Ni-NTA
T1 sequence (A0A8H5XPW9 entry or part of it): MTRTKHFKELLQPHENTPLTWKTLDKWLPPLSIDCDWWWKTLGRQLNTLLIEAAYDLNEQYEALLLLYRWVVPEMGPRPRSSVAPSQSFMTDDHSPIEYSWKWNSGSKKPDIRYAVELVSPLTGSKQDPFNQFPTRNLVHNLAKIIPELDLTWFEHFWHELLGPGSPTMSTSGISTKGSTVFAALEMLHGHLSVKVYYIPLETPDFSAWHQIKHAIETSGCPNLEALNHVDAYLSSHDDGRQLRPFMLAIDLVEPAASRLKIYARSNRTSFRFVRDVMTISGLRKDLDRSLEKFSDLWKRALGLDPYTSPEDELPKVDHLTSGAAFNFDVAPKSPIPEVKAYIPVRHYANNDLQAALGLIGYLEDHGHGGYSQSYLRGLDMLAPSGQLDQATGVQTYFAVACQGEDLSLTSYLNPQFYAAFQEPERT
Description: HPLC product formation, Michaelis-Menten fit on FgPT1

FgPT1 [2] = target: T1, FgPT1; experiment: HPLC / LC-MS product detection; type: biochemical; settings: prenyl donor; with flavanone acceptor, metal ion (Ba2+ best), Tris-HCl pH 7.5, 37 °C

O=C1C[C@@H](c2ccc(O)cc2)Oc2cc(O)cc(O)c21 [compound 1, Naringenin] was tested, and the “KM (mM)” value (FgPT1 [1]) was 0.26 ± (0.077) mM.
COc1ccc([C@@H]2CC(=O)c3c(O)cc(O)cc3O2)cc1O [compound 2, Hesperetin] was tested, and the “KM (mM)” value (FgPT1 [1]) was 0.94 ± (0.075) mM.
For O=C1C[C@@H](c2ccc(O)c(O)c2)Oc2cc(O)cc(O)c21 [compound 3, Eriodictyol], the “KM (mM)” value (FgPT1 [1]) was 0.23 ± (0.026) mM.
In the case of O=C1c2c(O)cc(O)cc2OCC1c1ccc(O)cc1 (stereo not shown) [compound 6, Dihydrogenistein], the “KM (mM)” value (FgPT1 [1]) is reported as 0.14 ± (0.026) mM.
In the case of O=C1C[C@@H](c2ccc(O)cc2)Oc2cc(O)ccc21 [compound 4, Liquiritigenin], the “KM (mM)” value (FgPT1 [1]) is reported as 0.93 ± (0.161) mM.
With O=C1CC(c2ccccc2)Oc2cc(O)cc(O)c21 (racemic) [compound 5, Rac-pinocembrin] the “KM (mM)” value (FgPT1 [1]; racemic substrate) was 0.14 ± (0.037) mM.
With CC(C)=CCOP(=O)(O)OP(=O)(O)O [DMAPP] the “HPLC / LC-MS product detection” value (FgPT1 [2]) was “using DMAPP as the prenyl donor revealed catalytic activity exclusively toward six flavanones”.
